Measurements: patent publication US12577536B2, “Method for isolating ureteric bud tip cells” (KYOTO UNIVERSITY, priority 2019, dated 2026)

Experiments:
Type in all cases: cell-based, human
[1] = test system: dissociated tip colony cells; assay: Collecting duct progenitor induction, 2D culture with immunostaining
Protocol: For 2D cultures, day 7 tip cell colonies detached from hydrogel were dissociated into single cells by pipetting after treatment with Accutase for 3 min at 37° C. The single cells were resuspended with Essential 6 medium containing 1 μM IWR-1 (Tocris) and 0.5 μL/cm^2 iMatrix-511 silk with or without 1 μM A83-01 and seeded at a density of 4×10^4 cells/well in 96-well plates. For 3D cultures, day 14 reconstituted iUB organoids were treated with Essential 6 medium containing 1 μM IWR-1 and 1 μM A83-01 for 14 days.
Immunostaining analysis was performed as described previously with some modifications (Mae, SI. & Ryosaka, M. et al. Biochem Biophys Res Commun. 495, 954-61 (2018)). For 2D cultures, the cells were fixed with 4% paraformaldehyde (PFA)/PBS for 20 min at 4° C. After washing with PBS twice, the cells were blocked with 18 normal donkey serum (MERCK) and 3% bovine serum albumin (BSA; Nacalai Tesque)/PBST (PBS/0.25% Triton X-100, Nacalai Tesque) for 1 h at room temperature. Primary antibodies were diluted with blocking solution at 1:500 and incubated with the samples overnight at 4° C. After washing with PBST twice, secondary antibodies diluted with blocking solution at 1:500 were incubated for 1 h at room temperature.

[2] = test system: tip cell colonies; assay: Reconstitution of iUB organoids from tip cell colonies; conditions: organoid medium with CHIR99021
Protocol: Hydrogel was dissolved with Cell Recovery Solution (BD Biosciences) for 1 h at 4° C. to detach day 7 tip cell colonies. After washing with additional Cell Recovery Solution, the tip cell colonies were centrifuged at 500 g for 5 min at room temperature. Essential 6 medium containing 0.1 μM LDN193189, 100 ng/ml GDNF, 0.1 μM TTNPB, 200 ng/ml FGF8, 1 μM CHIR99021 or 10% Afamin/Wnt3a conditioned medium (MBL), 200 ng/ml R-spondin 1 (R&D systems), 50 ng/ml EGF, 200 ng/ml FGF1 and 10% Matrigel was applied to the tube including tip cell colonies. After pipetting gently with a wide-mouth micropipette (BMBio) not to break colonies, the suspension was distributed to low-attachment 35 mm dish (Sumitomo Bakelite) at 2 mL/dish. The medium was refreshed every 2 days. On day 4, each colony was placed onto one well of low-attachment 96-well plates in the same medium. After an additional 6 days, the tip region was separated from the reconstituted iUB organoid and treated with the same medium for 35 days.

[3] = test system: ND aggregates / iUB organoids; assay: iUB organoid induction from ND aggregates; conditions: 50 ng/ml EGF and 200 ng/ml FGF1 added together to organoid medium
Protocol: Unwanted cells were removed from the ND aggregates by pipetting (Mae, SI. & Ryosaka, M. et al. Biochem Biophys Res Commun. 495, 954-61 (2018)). The ND aggregates were treated with the same medium and factors containing 2% Matrigel for 6 days to constitute iUB organoids with epithelial polarity and tubular lumens. 50 ng/ml EGF (R&D Systems) and 200 ng/ml FGF1 (R&D Systems) were added to enhance budding. The tips were mechanically separated from iUB organoids and cultured in the same medium and factors containing 2% Matrigel for 6 to 14 days to reconstitute branching iUB organoids. The tips separated from the reconstituted iUB organoids were treated with the same medium and factors to repeatedly reconstitute iUB organoids.

Q: Which “induction rates of AQP2-expressing cells” value ([1]; 1 μM A83-01 in combination with 1 μM IWR-1, day 7 of 2D culture) does the source give for Cc1cccc(-c2nn(C(=S)Nc3ccccc3)cc2-c2ccnc3ccccc23)n1 [A83-01, 3-(6-Methyl-2-pyridinyl)-N-phenyl-4-(4-quinolinyl)-1H-pyrazole-1-carbothioamide] here?
A: improved the induction rates of these cells

Q: Cc1c[nH]c(-c2cnc(NCCNc3ccc(C#N)cn3)nc2-c2ccc(Cl)cc2Cl)n1 [CHIR99021, 6-[2-[4-(2,4-Dichlorophenyl)-5-(4-methyl-1H-imidazole-2-yl)pyrimidine-2-ylamino]ethylamino]pyridine-3-carbonitrile] was tested. Which “reconstitution of iUB organoids from tip cell colonies” value [2] did it give?
A: only observed with tip cell colonies derived from 585A1 iPS cells

Q: With O=C(Nc1cccc2cccnc12)c1ccc(N2C(=O)[C@@H]3[C@H](C2=O)[C@@H]2C=C[C@H]3C2)cc1 [IWR-1] as the compound, how does the “differentiation into AQP2-expressing, CAII-negative cells” value ([1]; 1 μM IWR-1, day 7 of 2D culture) read?
A: facilitated the differentiation of dissociated tip colony cells into the cells expressing a collecting duct principal cell marker, Aquaporin (AQP) 2

Q: How did the “budding of iUB organoids” value [3] turn out when “EGF: protein called Epidermal Growth Factor (R&D systems) (NSDSECPLSHDGYCLHDGVCMYIEALDKYACNCVVGYIGERCQYRDLKWWELR; Epidermal growth factor; UniProt P01133 971-1023, looked up)” was run?
A: promoted budding

Q: FGF1: fibroblast growth factor was tested. Which “budding of iUB organoids” value [3] did it give?
A: promoted budding
